Experimental data taken from US8030345B2, “Tricyclic pyrazole derivatives as cannabinoid receptor modulators” (Cadila Healthcare Limited, priority 2004, dated 2011).

Test system: rat
Test: Intake of 5% sucrose solution in rat model
Assay type: in vivo
Settings: intake of 5% sucrose solution in animal model (rat)
From the text: Compounds of the present invention in the cAMP accumulation model, antagonizes the WIN-55, 212-2 inhibition of forskolin-induced cAMP accumulation in hCB1-CHO cells [J Pharmacol. Exp Ther., 1998, 284, 291-297]. In a mouse vas deferens preparation, representative compounds cause rightward shift of the WIN-55, 212-2 concentration-response curve (Eur. J. Pharm. 1995, 284, 241-247). Representative compounds of the present invention have shown decrease in sucrose solution intake in rat model (Table 1) [Psychopharmacology, 1997, 132, 104-106].

| Structure (SMILES) | Reduction in sucrose solution consumption w.r.t. control animals |
| --- | --- |
| O=C(NN1CC2CCCC2C1)c1nn(-c2ccc(Cl)cc2Cl)c2c1CCOc1cc(Cl)ccc1-2 (centres unmarked) [Compound 5, 8-chloro-1-(2,4-dichloro-phenyl)-4,5-dihydro-1H-6-oxa-1,2-diaza-benzo [e] azulene-3-carboxylic acid (hexahydro-cyclopenta[c]pyrrol-2-yl)-amide] | −23.2 ± 11.4 |
| O=C(NN1CCOCC1)c1nn(-c2ccc(Cl)cc2Cl)c2c1CCOc1cc(Cl)ccc1-2 [Compound 6, 8-chloro-1-(2,4-dichloro-phenyl)-4,5-dihydro-1H-6-oxa-1,2-diaza-benzo [e] azulene-3-carboxylic acid morpholine-4-yl-amide] | −24.9 ± 8.9 |
| O=C(NN1CCC(O)CC1)c1nn(-c2ccc(Cl)cc2Cl)c2c1CCOc1cc(Cl)ccc1-2 [Compound 3] | −18.9 ± 14.0 |
| O=C(NN1CCCCC1)c1nn(-c2ccc(Cl)cc2)c2c1CCOc1cc(Cl)ccc1-2 [Compound 8, 8-chloro-1-(4-chloro-phenyl)-4,5-dihydro-1H-6-oxa-1,2-diaza-benzo [e] azulene-3-carboxylic acid piperidin-1-ylamide] | −30.4 ± 4.3 |
| O=C(NN1CCCCC1)c1nn(-c2ccc(Cl)cc2Cl)c2c1CCCc1sc(Cl)cc1-2 [Compound 16] | −13.2 ± 15.7 |
